In article PMC8847695 (Frontiers in Chemistry, 2022):

Experiments:
Type in all cases: binding
[1] = target: AAK1 (121-471) (Homo sapiens, UniProt Q2M2I8); assay: STD-NMR fragment screening, AAK1; conditions: for STD-NMR hit: 1 mM fragment, 20 µM protein, hit if peak in difference spectrum three times higher than local noise; for AAK1 (STD-NMR hit flag): 1 = hit, 0 = no hit
Experimental: (§1) All fragments were stored at −20°C as solids in argon flushed glass bottles. For NMR screening, fragments were weighed and dissolved in DMSO-d6 to a stock concentration of 300 mM. Mother plates were prepared with a 100 mM concentration. From these plates, daughter plates were prepared with the fragments mixed in the plates to a concentration of 50 mM for each fragment. Daughter plates were opened a maximum of eight times. The plates were argon flushed and sealed with a HT121TS (HTA) and Foil Heat Seal (Biozym).
(§2) For long time measurements, like the protein ^1H NMR spectrum, the buffer exchange was performed twice to reduce residual buffer peaks. All experiments were performed on a Bruker Avance III HDX 700 instrument, equipped with a 5 mm Prodigy TCI cryo-probehead. For every protein, a standard ^1H NMR experiment with 1 k scans and water suppression through presaturation was performed. […] The on-resonance frequency, which was determined from the ^1H NMR spectra of the protein, was between 0.5 and 0.6 ppm; 40 ppm was used as the off-resonance frequency. For an interleaved acquisition of the on- and off-resonance, a pseudo-2D scheme was applied. The saturation was done by Gaussian pulses with a length of 50 ms and 60 dB of attenuation, with an interpulse delay of 1 ms leading to an excitation bandwidth of about 42 Hz. The screening was done with 16 scans of on- and off-resonance scans each, with a 3 s saturation time. The samples contained final concentrations of 20 µM protein, 10% (^V/V) DMSO-d6, and 1 mM of each of the two fragments. A ^1H-NMR experiment was performed for each compound to act as a reference spectrum in the STD experiments. All NMR experiments were carried out at 25°C.
(§3) Fifteen of these compounds contain the same halogen twice. No compound bears mixtures of different halogen atoms. Four proteins (AAK1, CAMK1G, IDO1, and DOT1L) were screened against this HEFLib using STD-NMR. A fragment was considered a hit if the peak intensity in the difference spectrum was three times higher than the local background noise. […] Chemical compatibility and peak complementarity were assured for these mixtures. Samples containing more than two fragments were avoided to minimize the possible target competition and to decrease the risk of fragment interactions. […] The ^1H reference NMR spectrum of the mixture is shown in red for comparison. […] As fragment mixtures can lead to competitive effects between their fragments, it is not advised to use the quantification of peak mixtures for hit ranking.

[2] = target: T1, CAMK1G (1-320) (Homo sapiens, UniProt Q96NX5); assay: STD-NMR fragment screening, CAMK1G; conditions: for CAMK1G (STD-NMR hit flag): 1 = hit, 0 = no hit
T1 construct: made in house; host or cells: E. coli BL21 (DE3) pLysS
Experimental: as §1, §2, §3

[3] = target: T2, IDO1 (1-435) (Homo sapiens, UniProt P14902); assay: STD-NMR fragment screening, IDO1; conditions: for IDO1 (STD-NMR hit flag): 1 = hit, 0 = no hit
T2 construct: His-tag of pET15b with TEV site (thrombin site replaced) (cleaved yes); made in house; host or cells: E. coli Rosetta 2 (DE3) pLysS
Experimental: as §1, §2, §3

[4] = target: T3, DOT1L (1-416) (Homo sapiens, UniProt Q8TEK3); assay: STD-NMR fragment screening, DOT1L; conditions: for DOT1L (STD-NMR hit flag): 1 = hit, 0 = no hit
T3 construct: made in house; host or cells: E. coli BL21 (DE3) pLysS
Experimental: as §1, §2, §3

[5] = 1 mM fragment, 20 µM protein, hit if peak in difference spectrum three times higher than local noise

T1 sequence (Q96NX5 1-320): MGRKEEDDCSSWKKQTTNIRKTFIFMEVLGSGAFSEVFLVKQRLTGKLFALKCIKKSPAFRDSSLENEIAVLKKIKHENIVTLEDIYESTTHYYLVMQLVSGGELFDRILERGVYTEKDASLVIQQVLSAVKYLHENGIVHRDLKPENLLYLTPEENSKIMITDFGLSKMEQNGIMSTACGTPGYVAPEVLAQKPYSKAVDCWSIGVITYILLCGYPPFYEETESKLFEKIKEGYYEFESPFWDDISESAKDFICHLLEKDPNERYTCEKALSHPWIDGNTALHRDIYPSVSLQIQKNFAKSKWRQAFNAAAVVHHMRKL
T2 sequence (P14902 whole entry, the tested form may be a part): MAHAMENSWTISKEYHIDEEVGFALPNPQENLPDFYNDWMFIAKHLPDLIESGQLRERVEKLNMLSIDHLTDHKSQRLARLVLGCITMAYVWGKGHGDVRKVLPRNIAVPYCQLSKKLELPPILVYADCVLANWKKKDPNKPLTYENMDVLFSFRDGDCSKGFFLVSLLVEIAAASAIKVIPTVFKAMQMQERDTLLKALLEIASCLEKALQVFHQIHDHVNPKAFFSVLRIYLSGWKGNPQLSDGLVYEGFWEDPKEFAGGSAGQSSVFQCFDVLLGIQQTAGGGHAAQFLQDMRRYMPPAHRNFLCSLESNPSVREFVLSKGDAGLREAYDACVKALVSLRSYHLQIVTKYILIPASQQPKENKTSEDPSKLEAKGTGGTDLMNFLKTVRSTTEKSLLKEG
AAK1 (121-471), sequence (Q2M2I8 46-315 limits assumed): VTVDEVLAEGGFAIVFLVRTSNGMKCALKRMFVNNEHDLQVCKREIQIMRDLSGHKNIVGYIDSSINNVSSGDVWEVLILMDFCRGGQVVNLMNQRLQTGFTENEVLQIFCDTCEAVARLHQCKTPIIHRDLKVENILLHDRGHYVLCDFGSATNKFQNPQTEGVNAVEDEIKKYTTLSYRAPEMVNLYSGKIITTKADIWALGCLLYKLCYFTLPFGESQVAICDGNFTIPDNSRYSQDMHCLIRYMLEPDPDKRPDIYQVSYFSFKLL
T3 sequence (Q8TEK3 1-416): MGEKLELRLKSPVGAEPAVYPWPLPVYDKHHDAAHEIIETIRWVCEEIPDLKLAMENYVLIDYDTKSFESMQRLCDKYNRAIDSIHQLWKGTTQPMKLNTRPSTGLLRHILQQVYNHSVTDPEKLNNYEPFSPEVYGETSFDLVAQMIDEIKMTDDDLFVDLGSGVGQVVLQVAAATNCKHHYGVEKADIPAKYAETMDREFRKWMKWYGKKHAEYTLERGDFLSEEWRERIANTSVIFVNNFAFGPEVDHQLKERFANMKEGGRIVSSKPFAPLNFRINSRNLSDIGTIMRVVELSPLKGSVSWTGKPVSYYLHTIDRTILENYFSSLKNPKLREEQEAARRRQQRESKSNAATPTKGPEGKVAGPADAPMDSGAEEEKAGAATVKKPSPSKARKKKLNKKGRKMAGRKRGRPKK

SMILES	STD-NMR hit [1]	STD-NMR hit [2, 5]	STD-NMR hit [3, 5]	STD-NMR hit [4, 5]	AAK1 (STD-NMR hit flag) [1]	CAMK1G (STD-NMR hit flag) [2]	IDO1 (STD-NMR hit flag) [3]	DOT1L (STD-NMR hit flag) [4]
Cn1c(Cl)c(C#N)c(=O)n(C)c1=O [Fragment 1234]	pan-target hit	pan-target hit	pan-target hit	pan-target hit				
Oc1ccc(Cl)cc1 [Fragment 4485]	none of the signals of fragment 4485 (Signal 4 and 5) are distinguishable from the baseline noise							
NC(CCO)c1ccc(Cl)cc1Cl (stereo not drawn) [Fragment B02289594]					0	0	0	0
Clc1ncnc2cc[nH]c12 [Fragment B02289595]					1	1	0	0
Cc1noc(C)c1Br [Fragment B02289596]					0	1	0	0
O=C(O)c1cccc(Cl)n1 [Fragment B02289597]					0	0	0	0
OB(O)c1ccc(Cl)nc1F [Fragment B02289599]					0	0	0	0
Nc1ncccc1I [Fragment B02289600]					0	1	0	0
O=[N+]([O-])c1cnc(Br)[nH]1 [Fragment B02289601]					1	0	1	0
O=C(O)c1ccc(Cl)cn1 [Fragment B02289602]					0	0	0	0
Nc1cccc(Br)c1O [Fragment B02289603]					0	0	0	0
O=C(O)c1cncc(Cl)c1 [Fragment B02289604]					1	0	0	0
Nc1ccc2[nH]nc(Br)c2c1 [Fragment B02289605]					0	1	0	0
OCc1ccc(Cl)nc1 [Fragment B02289606]					0	0	0	0
Nc1cnccc1I [Fragment B02289607]					1	0	0	0
COc1nc(N)ncc1I [Fragment B02289608]					1	1	0	0
NCc1cc(Br)no1 [Fragment B02289609]					0	0	0	0
Brc1cnn2cccnc12 [Fragment B02289610]					1	1	0	0
O=C(O)c1cncc(Cl)n1 [Fragment B02289611]					0	0	0	0
Nc1ncc(Br)cc1C(=O)O [Fragment B02289612]					0	0	1	0
CCOC(=O)c1coc(Cl)n1 [Fragment B02289613]					0	0	0	0

SMILES	STD-NMR hit [1]	STD-NMR hit [2, 5]	STD-NMR hit [3, 5]	STD-NMR hit [4, 5]	AAK1 (STD-NMR hit flag) [1]	CAMK1G (STD-NMR hit flag) [2]	IDO1 (STD-NMR hit flag) [3]	DOT1L (STD-NMR hit flag) [4]
O=C(O)c1ncccc1Br [Fragment B02289614]					0	0	0	0
O=C(O)c1ccc(Cl)c(O)c1 [Fragment B02289615]					0	0	0	0
Cc1ccc(N)c(Cl)n1 [Fragment B02289616]					1	0	0	0
Brc1cnc2cnccn12 [Fragment B02289617]					0	1	0	0
O=c1[nH]cnc(O)c1Br [Fragment B02289618]					0	0	0	0
Cc1ncccc1Br [Fragment B02289619]					0	1	0	0
Cn1ccc(Br)n1 [Fragment B02289620]					0	0	1	0
Nc1ncnc(Cl)c1Cl [Fragment B02289621]					1	1	0	0
Brc1cncnc1 [Fragment B02289809]					0	0	0	0
Brc1cnc(N2CCCNCC2)nc1 [Fragment B02290087]					0	1	0	0
COc1ccc(CN)c(Cl)c1 [Fragment B02290088]					0	0	0	0
CN(N)c1ncc(C(F)(F)F)cc1Cl [Fragment B02290089]					0	0	0	0
NCc1cc(Cl)cc(Cl)c1N [Fragment B02290090]					0	0	0	0
COc1ccc(I)cc1CNCCO [Fragment B02290112]					0	0	0	0
Brc1cnn(-c2nnn[nH]2)c1 [Fragment B02290113]					1	0	1	0
CC(C(=O)O)n1cc(Br)cn1 (stereo not drawn) [Fragment B02290114]					0	0	0	0
O=C(c1cc(Br)c[nH]1)N1CCOCC1 [Fragment B02290115]					0	1	0	0
Cn1ncc(Br)c1C(=O)O [Fragment B02290116]					0	0	1	0
NCCCn1cc(Cl)cn1 [Fragment B02290117]					0	0	0	0
NC(=O)c1nc(Cl)n[nH]1 [Fragment B02290118]					0	0	0	0
O=C(O)CCc1nc(Br)n[nH]1 [Fragment B02290119]					0	0	0	0
